From ChEMBL document CHEMBL5316313, “Discovery of Novel 3-Phenylpiperidine Derivatives Targeting the β-Catenin/B-Cell Lymphoma 9 Interaction as a Single Agent and in Combination with the Anti-PD-1 Antibody for the Treatment of Colorectal Cancer” (J Med Chem, 2023) come the findings set out here.

Test [1] addresses T1, beta-catenin-B-cell lymphoma 9 protein complex (Homo sapiens, UniProt P35222).
T1 sequence (P35222 whole entry): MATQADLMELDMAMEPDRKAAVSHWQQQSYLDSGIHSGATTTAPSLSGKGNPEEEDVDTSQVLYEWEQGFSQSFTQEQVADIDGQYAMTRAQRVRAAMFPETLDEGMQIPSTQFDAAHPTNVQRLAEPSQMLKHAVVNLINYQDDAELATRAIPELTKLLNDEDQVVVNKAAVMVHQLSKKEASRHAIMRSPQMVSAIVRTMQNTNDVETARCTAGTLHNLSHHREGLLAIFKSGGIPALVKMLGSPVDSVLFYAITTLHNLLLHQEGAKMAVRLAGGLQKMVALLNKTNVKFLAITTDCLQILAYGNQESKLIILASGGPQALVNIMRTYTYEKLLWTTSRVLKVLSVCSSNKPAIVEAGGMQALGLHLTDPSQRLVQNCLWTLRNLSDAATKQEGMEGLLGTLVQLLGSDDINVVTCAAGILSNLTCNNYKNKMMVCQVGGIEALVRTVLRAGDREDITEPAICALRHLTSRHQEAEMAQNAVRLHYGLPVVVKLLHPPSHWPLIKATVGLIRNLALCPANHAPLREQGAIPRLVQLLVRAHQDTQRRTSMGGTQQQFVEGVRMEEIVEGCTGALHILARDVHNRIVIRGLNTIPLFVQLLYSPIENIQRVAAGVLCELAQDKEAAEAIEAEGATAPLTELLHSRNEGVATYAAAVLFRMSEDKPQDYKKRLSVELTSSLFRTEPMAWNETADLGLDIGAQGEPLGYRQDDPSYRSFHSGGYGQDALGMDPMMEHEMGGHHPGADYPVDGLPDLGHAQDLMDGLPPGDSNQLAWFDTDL
T1 sequence (O00512 whole entry): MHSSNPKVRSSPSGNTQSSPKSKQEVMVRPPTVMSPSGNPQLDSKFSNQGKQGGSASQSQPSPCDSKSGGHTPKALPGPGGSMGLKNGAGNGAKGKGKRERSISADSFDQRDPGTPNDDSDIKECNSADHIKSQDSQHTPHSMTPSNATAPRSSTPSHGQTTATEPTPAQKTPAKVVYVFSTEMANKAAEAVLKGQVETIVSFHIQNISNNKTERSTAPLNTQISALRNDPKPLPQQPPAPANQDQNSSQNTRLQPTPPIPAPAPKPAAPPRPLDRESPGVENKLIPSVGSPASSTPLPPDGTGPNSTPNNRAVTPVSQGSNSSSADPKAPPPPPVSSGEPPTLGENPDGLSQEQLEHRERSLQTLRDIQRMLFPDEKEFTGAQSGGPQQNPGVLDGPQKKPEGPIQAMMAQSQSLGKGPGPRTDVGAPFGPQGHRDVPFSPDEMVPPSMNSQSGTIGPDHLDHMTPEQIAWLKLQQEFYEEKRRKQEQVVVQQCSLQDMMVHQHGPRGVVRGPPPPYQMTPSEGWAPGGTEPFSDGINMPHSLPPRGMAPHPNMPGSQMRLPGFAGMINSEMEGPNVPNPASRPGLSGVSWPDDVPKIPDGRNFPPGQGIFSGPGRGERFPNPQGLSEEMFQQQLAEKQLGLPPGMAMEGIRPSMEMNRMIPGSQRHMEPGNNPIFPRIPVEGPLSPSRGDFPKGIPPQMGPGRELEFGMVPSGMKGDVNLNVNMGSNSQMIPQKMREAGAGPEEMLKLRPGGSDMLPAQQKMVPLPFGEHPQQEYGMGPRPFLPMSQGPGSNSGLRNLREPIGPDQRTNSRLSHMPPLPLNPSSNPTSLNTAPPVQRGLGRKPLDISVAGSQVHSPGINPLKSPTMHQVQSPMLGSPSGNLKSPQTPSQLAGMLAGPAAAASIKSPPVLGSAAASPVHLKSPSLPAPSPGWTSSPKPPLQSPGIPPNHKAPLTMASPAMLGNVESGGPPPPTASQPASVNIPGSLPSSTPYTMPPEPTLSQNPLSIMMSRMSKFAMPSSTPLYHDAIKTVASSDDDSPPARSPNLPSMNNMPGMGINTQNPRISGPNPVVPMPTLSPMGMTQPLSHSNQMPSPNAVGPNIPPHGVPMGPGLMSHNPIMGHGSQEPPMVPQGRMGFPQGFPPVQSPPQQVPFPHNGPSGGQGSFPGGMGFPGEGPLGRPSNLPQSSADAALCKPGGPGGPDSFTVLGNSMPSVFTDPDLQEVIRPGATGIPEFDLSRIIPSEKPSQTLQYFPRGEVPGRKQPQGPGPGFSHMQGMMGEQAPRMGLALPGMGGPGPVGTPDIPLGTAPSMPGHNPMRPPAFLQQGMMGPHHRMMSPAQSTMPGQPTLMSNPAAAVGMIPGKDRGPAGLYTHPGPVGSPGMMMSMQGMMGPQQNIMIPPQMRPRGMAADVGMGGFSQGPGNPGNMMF
Description: Inhibition of full-length recombinant beta-catenin (1 to 781 residues) (unknown origin)/N-terminal biotinylated BCL9-HD2 (unknown origin) protein-protein interaction assessed as inhibition constant incubated for 90 mins by AlphaScreen assay. It counts as protein-complex assay. (In general: Alpha assays give light when donor and acceptor beads are brought close together.)

Test [2] has as its target T1, beta-catenin-B-cell lymphoma 9 protein complex. Description: Inhibition of beta-catenin (unknown origin)/human BCL9 (350 to 375 residues) protein-protein interaction assessed as inhibition constant by AlphaScreen assay. It counts as protein-complex assay.
Test [3] shares this target. Description: Inhibition of FLAG tagged human beta-catenin/FLAG-tagged human BCL9 HD2 (343 to 396 residues) expressed in Escherichia coli BL21 protein-protein interaction assessed as inhibition constant by ELISA.
Test [4] has the same target. Description: Inhibition of beta-catenin (unknown origin)/BCL9 (unknown origin) protein-protein interaction assessed as inhibition constant by AlphaScreen assay. Format: protein-complex assay.

The structures appear in SMILES notation.

As to `CC1CCCN(CCCNC(=O)C2=Cc3sc4c(c3CS2)CCCC4)C1` (centres undefined), the Ki in test [1] turned out to be 9 µM. For the molecule `O=C(Nc1ccc(O[C@@H]2CCNC2)c(-c2ccc(F)cc2)c1)c1ccc(O[C@H]2CCNC2)c(-c2ccc(F)c(F)c2)c1`, the Ki in test [2] turned out to be 2100 nM. In the case of `CC(C)c1cc2c(c(O)c1O)[C@@]1(C(=O)O)CCCC(C)(C)[C@@H]1CC2` [CARNOSIC ACID], the Ki in test [3] amounted to 3.3 µM.

Regarding `O=C(Nc1ccc(O[C@H]2CCNC2)c(-c2cccc(-c3nn[nH]n3)c2)c1)c1ccc(O[C@H]2CCNC2)c(-c2ccc(F)c(F)c2)c1`, in test [4], the Ki came to 470 nM.

A word on the Ki: it is the equilibrium dissociation constant of an inhibitor or competing ligand from its target.
